Results as given in patent US10328092B2, “Methods and compositions for treatment of drug addiction” (The Royal Institution for the Advancement of Learning / …, priority 2015, dated 2019).

Key:
[1] = tested on: D1-MSNs in the NAc core; test: AMPA/NMDA ratio on D1-MSNs after in vivo treatment; parameters: species or system mouse
Protocol: Repeated non-contingent administration of cocaine results in lower AMPA/NMDA ratios of excitatory inputs onto the NAc specifically on the D1-MSN subtype (Kim et al., 2011; Pascoli et al., 2012). To test whether the decrease in AMPA/NMDA ratios after repeated drug administration is due to the increase in TNFα expression, the AMPA/NMDA ratio was evaluated on D1 and D2 MSNs in the NAc core following cocaine or saline administration in WT and TNFα^−/− mice. […] This is consistent with the exocytosis of AMPARs observed with direct stimulation of D1Rs on MSNs (Mangiavacchi and Wolf, 2004). […] To test the hypothesis that potentiated D1-MSNs are more sensitive to TNFα, TNFα mice were treated with a single injection of cocaine and the effect of a low level of TNFα (10 ng/ml) on AMPA/NMDA ratios was evaluated. […] This treatment had no effect on D2-MSNs (FIG. 9B). To test whether cocaine-induced TNFα signaling would occlude further TNFα synaptic depression, wildtype animals were treated with cocaine for 5 days, and then treated striatel slices ex-vivo with TNFα (100 ng/ml). The AMPA/NMDA ratio on D1-MSNs (already reduced compared to saline treated animals; FIG. 5E) was not further reduced by treatment with TNFα (FIG. 5G).
Because depotentiation of MSNs reduced cocaine-induced behavioural sensitization (Pascoli et al., 2012), it was tested whether re-activation of microglia would depress NAc synapses and suppress sensitization. To do this, monophosphoryl lipid A (MPLA), a detoxified variant of LPS, was used (Casella and Mitchell, 2008). MPLA acts as a weak TLR4 agonist that is at least 100-fold less pyrogenic than LPS (Cluff, 2010) and is used in humans as an adjuvant for several vaccine formulations. […] It was verified that MPLA activates microglia in the striatum, by injecting 10 μg MPLA IP after 10 days withdrawal from cocaine. […] This is consistent with previous observations that MPLA acts as a microglia modulator (Michaud et al., 2013). […] It was next tested if MPLA treatment would depress synaptic strength in the NAc core. After 10 days of withdrawal, animals were injected with MPLA and evaluated 24 hours later for AMPA/NMDA ratios on D1-MSNs.
240 μm thick coronal slices containing the nucleus accumbens were prepared from brains of 8-9 week-old mice (with fluorescent D1-MSNs). After a 1 h recovery period, slices were placed in a submersion-type recording chamber and perfused (1.5-2 ml/min) at 30° C. with a bicarbonate-buffered artificial CSF saturated with 95% O2/5% CO2 and containing (in mM): 119 NaCl, 2.5 KCl, 1 NaH2PO4, 1.3 MgCl2, 2.5 CaCl2, 26.2 NaHCO3, 11 glucose, and 0.05 picrotoxin. Whole-cell voltage-clamp recordings from medium spiny neurons in the nucleus accumbens core were obtained under visual control using infrared-differential interference contrast microscopy. Whole-cell electrodes (2-4 MΩ) were filled with internal solution containing the following (in mM): 120 CsMeSO3, 15 CsCl, 8 NaCl, 0.2 EGTA, 10 HEPES, 2 Mg-ATP, 0.3 Na-GTP, 10 tetraethylammonium, and 5 QX-314 [5-N-(2,6-dimethylphenylcarbamoylmethyl)triethylammonium bromide] (308-310 mOsm). pH was adjusted to 7.3 with CsOH. Cells with series resistance above 25 MΩ or a 20% change over time were excluded. Synaptic currents were evoked using stainless-steel bipolar stimulating electrodes placed 100-150 μm rostral to the recorded neurons. EPSCs were acquired with an Axopatch 200B (Molecular Devices), filtered at 2 kHz, and digitized at 10 kHz. Acquisition and analysis was performed using pCLAMP 10.2 (Molecular Devices). To calculate AMPA/NMDA ratios, evoked synaptic responses were collected at −70 mV to measure AMPAR-mediated EPSCs and at +40 mV to measure NMDAR-mediated EPSCs. Typically, 20 responses were averaged to generate an average response. The peak AMPA response was used to calculate the AMPAR component and the amplitude at 40 ms post the AMPAR peak response was used to calculate the slower NMDA component at +40 mV to calculate the AMPA/NMDA ratio.

[2] = tested on: mice; test: Cocaine-induced behavioural sensitization, locomotor response; assay type: in vivo, mouse
Protocol: A cocaine induced behavioral sensitization animal model of drug addiction was used. Sensitization refers to the augmentation of behavioral responses to drugs of abuse that occurs during their repeated administration and persists long after drug exposure is discontinued. In this paradigm mice are injected with 15 mg/kg cocaine and put in an open field box and measure the cocaine stimulatory effects on locomotor for 15 min. After the first run mice are injected with 10 ug of MPL and returned to their home cage.
The response of mice to repeated doses of cocaine was compared. After habituating animals to handling, the animals receive an IP injection and have their locomotor activity monitored in open-field chambers using Ethovision software for 15 min. After two days of saline injections, mice received five daily injections of cocaine (15 mg/kg) and assayed for locomotion. Following 7-10 days without injections (withdrawal), mice receive a challenge dose of cocaine (also 15 mg/kg) and locomotor activity again assessed (see Examples 1 and 2). A minimum of three separate cohorts have been run.
Locomotion was monitored in 30×30 cm plexiglass boxes by the EthoVision video-tracking system (Noldus) and performed near the end of the light phase of the light-dark cycle under dim red light. After habituating animals to handling, mice received IP injections of saline or cocaine and their activity was recorded for 15 min. Mice were tested during habituation to injection and the activity boxes (saline; days 1-2) and 5 repeated cocaine injections (15 mg/kg; days 3-7). Following 10 days without injections (withdrawal), mice receive a challenge dose of cocaine (15 mg/kg) and locomotor activity again assessed (day 17). Total distance traveled and stereotypy were evaluated from video by EthoVision. For stereotypy, the frequency of which the mouse stops moving (#pauses/min) was measured using a threshold start velocity of 2.00/second and a threshold stop velocity of 0 cm/s. The number of turns per minute (# turns/min) was measured by calculating the frequency for which the path of the mouse turns over a minimum distance of 3.00 cm. Velocity was assessed as the mean distance traveled (cm) over time (s).
Mice were treated for […] with saline (1,2), then 5 consecutive days with 15 mg/kg cocaine (3-7). Animals then underwent a 9 day withdrawal period from cocaine. On day 9, they received an injection of saline or 50 μg/kg of LPS. 24 hours later, the mice were retested for the locomotor response in terms of distance (cm) traveled in 15 minutes.

Compound | mean AMPA/NMDA ratio, D1 ([1]; TNFα−/− mice, 1 day cocaine 15 mg/kg) | mean AMPA/NMDA ratio, D1 ([1]; TNFα−/− mice, 5 days cocaine 15 mg/kg) | mean AMPA/NMDA ratio, D1 ([1]; WT mice, 1 day cocaine 15 mg/kg) | mean AMPA/NMDA ratio, D1 ([1]; WT mice, 5 days cocaine 15 mg/kg) | initial response to cocaine challenge dose ([2]; 7 daily saline injections, 9 days abstinence, MPLA 10 μg, cocaine 15 mg/kg next day) | locomotor response to a challenge dose of cocaine ([2]; TNFα−/− mice, MPLA 10 μg) | behavioral sensitization to cocaine ([2]; TNFα−/− mice, MPLA 10 ug IP after first cocaine 15 mg/kg, re-tested one day later) | behavioral response to cocaine ([2]; WT mice, 10 days withdrawal, single MPLA 10 μg, tested 4 days later) | behavioral (locomotor) response to cocaine challenge ([2]; wildtype mice after withdrawal, MPLA 10 μg or 50 μg, tested 24 hours later, cocaine 15 mg/kg) | behavioral sensitization to cocaine vs saline treated mice ([2]; wildtype mice, MPLA 10 ug IP after first cocaine 15 mg/kg, re-tested 24 hours later) | AMPA/NMDA ratio in D1-MSNs vs saline treated controls ([1]; MPLA 10 μg, 24 hours after injection, after 10 days withdrawal from cocaine)
COC(=O)[C@H]1[C@@H](OC(=O)c2ccccc2)C[C@@H]2CC[C@H]1N2C [cocaine] | 4.28±0.35 | 4.97±083 | 3.38±0.57 | 2.73±0.35 | – | – | – | – | – | – | –
monophosphoryl lipid A [MPLA] | – | – | – | – | did not alter | did not reduce | no effect | did not reduce | dose dependently reduced | reduced | significantly reduced
